The term inhibition denotes the relative decrease from the control value, in per cent.

In test [1] the test system is A2780 intracellular CTD pSer2. As to the kind of experiment: CTD pSer2 measurement using human ovarian cancer cell A2780 and In-Cell Western method. It counts as cell-based. The conditions noted are these: inhibitory rate against A2780 intracellular CTD pSer2 at 1 μM test compound, 4 hr. As for the experimental part: Experimental Example 3: CTD pSer2 Measurement Using Human Ovarian Cancer Cell A2780 and In-Cell Western Method
A2780 cells (ATCC) were seeded in a 96 well plate at 1.8×10^4 cells/well, and the cells were cultured overnight in a cell culture medium RPMI1640 (FUJIFILM Wako Pure Chemical Corporation) containing 10% FBS (fetal bovine serum) and 1% penicillin/streptomycin. A test compound dissolved in a cell medium was added, and the mixture was stood for 4 hr in a CO2 incubator (37° C.). The cells were fixed with ALTFiX (Falma) for 30 min, and washed 3 times with a washing buffer (20 mM Tris-HCl (pH 7.5), 500 mM NaCl, 0.1% Tween20). 0.1% Triton-X-100 diluted with PBS(−) was added and the mixture was incubated at room temperature for 15 min. Thereafter, a blocking buffer (LI-COR) was added, and the mixture was incubated at room temperature for 1 hr. An anti-CTD pS2 antibody (Abcam) suspended in an antibody diluent (blocking buffer: PBS(−)-diluted 0.1% Tween20=1:1) was added, and the mixture was incubated at room temperature for 1 hr. The mixture was […] with a washing buffer, IRDye800CW-labeled anti-goat antibody (LI-COR) was added, and the mixture was incubated at room temperature for 1 hr. The mixture was washed 3 times with a washing buffer, and the fluorescence wavelength at 800 nm was measured by Aerius (LI-COR).
The inhibitory rate (%) of the test compound against A2780 intracellular CTD pSer2 was calculated by the following formula. Inhibitory rate (%)=(1−(count of test compound−blank)÷(control−blank))×100
The count of the A2780 cell under compound non-addition conditions is indicated as control, and the count under compound non-addition and primary antibody non-addition conditions is indicated as blank.
The results measured by the above-mentioned method (inhibitory rate of the signal value at 1 μM test compound relative to control) are shown below.

The next test deals with A2780 cells. Put plainly: In vitro proliferation suppression test (CellTiter-Glo). Format: cell-based, human. The conditions noted are these: Homo sapiens, 72 h, A2780 cell proliferation inhibitory rate at 1 μM test compound, three days. The procedure, abridged:
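A2780 cells in RPMI1640 with 10% FBS were exposed to 1 μM compound for three days at 37° C, 5% CO2. CellTiter-Glo luminescence read; inhibition (%) calculated relative to wells without compound.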
On the technique in general: Cellular ATP, detected with luciferase, serves as a proxy for viable cell number.

The target in the next test is CDK12/CycK enzyme (Homo sapiens, UniProt Q9NYV4). Put plainly: Measurement of CDK12/CycK inhibitory activity (ULight-4E-BP1 peptide phosphorylation, LANCE). It counts as biochemical. The following applies: inhibitory rate against CDK12/CycK at 1 μM test compound, ATP 10 μM or 500 μM. As for the experimental part:
Experimental Example 2: Measurement of CDK12/CycK Inhibitory Activity
A test compound dissolved in DMSO was added to a reaction solution (50 mM HEPES (pH 7.5), 10 mM MgCl2, 1 mM DTT, 0.01% Tween 20, 0.01% BSA) containing CDK12/CycK enzyme and ULight-labeled eIF4E-binding protein 1 (4E-BP1) (Thr37/Thr46) peptide (PerkinElmer), and the mixture was reacted at room temperature for 60 min. […] was added to give an ATP solution with a final concentration of 10 μM or 500 μM to start the enzyme reaction, and the mixture was reacted at room temperature for 60 min. A LANCE Detection buffer (PerkinElmer) containing europium-labeled anti-phosphorylation 4E-BP1 (Thr37/Thr46) antibody (PerkinElmer) and EDTA (final concentration 10 mM) was added to discontinue the reaction. After standing for 60 min, time decomposition fluorescence value (excitation 320 nm, emission 615 nm, 665 nm) was measured by Envision (PerkinElmer). The inhibitory rate (%) of the test compound against CDK12/CyclinK was calculated by the following formula. Inhibitory rate (%)=(1−(count of test compound−blank)÷(control−blank))×100
The count of the CDK12 enzyme reaction mixture under compound non-addition conditions is indicated as control, and the count under compound non-addition and CDK12/CycK enzyme non-addition conditions is indicated as blank.
The results measured by the above-mentioned method (inhibitory rate (%) of the signal value at 1 μM test compound relative to control is shown below.

For another test, the target named is CDK12/CycK complex (Homo sapiens, UniProt Q9NYV4). Put plainly: Measurement of CDK12 inhibitory activity by binding assay (TR-FRET, 66 nM BODIPY-FL-labeled AT-7519). The conditions noted are these: inhibitory rate against CDK12 at 1 μM test compound, 66 nM BODIPY-FL-labeled AT-7519, 2 nM CDK12/CycK. The procedure, abridged:
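His-tagged CDK12/CycK (2 nM) premixed with 66 nM BODIPY-FL-AT-7519 tracer, 0.2 nM Tb-streptavidin and 0.4 nM biotin-anti-His, then incubated with compound 120 min at room temperature. Tracer displacement read as BODIPY-FL/Tb TR-FRET ratio; percent inhibition normalized to no-compound control and 3 μM AT-7519 blank.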
(In general: Time-resolved FRET reads energy transfer from a long-lived donor to a nearby acceptor.)

Sequence of CDK12/CycK complex (Q9NYV4 whole entry, species assumed): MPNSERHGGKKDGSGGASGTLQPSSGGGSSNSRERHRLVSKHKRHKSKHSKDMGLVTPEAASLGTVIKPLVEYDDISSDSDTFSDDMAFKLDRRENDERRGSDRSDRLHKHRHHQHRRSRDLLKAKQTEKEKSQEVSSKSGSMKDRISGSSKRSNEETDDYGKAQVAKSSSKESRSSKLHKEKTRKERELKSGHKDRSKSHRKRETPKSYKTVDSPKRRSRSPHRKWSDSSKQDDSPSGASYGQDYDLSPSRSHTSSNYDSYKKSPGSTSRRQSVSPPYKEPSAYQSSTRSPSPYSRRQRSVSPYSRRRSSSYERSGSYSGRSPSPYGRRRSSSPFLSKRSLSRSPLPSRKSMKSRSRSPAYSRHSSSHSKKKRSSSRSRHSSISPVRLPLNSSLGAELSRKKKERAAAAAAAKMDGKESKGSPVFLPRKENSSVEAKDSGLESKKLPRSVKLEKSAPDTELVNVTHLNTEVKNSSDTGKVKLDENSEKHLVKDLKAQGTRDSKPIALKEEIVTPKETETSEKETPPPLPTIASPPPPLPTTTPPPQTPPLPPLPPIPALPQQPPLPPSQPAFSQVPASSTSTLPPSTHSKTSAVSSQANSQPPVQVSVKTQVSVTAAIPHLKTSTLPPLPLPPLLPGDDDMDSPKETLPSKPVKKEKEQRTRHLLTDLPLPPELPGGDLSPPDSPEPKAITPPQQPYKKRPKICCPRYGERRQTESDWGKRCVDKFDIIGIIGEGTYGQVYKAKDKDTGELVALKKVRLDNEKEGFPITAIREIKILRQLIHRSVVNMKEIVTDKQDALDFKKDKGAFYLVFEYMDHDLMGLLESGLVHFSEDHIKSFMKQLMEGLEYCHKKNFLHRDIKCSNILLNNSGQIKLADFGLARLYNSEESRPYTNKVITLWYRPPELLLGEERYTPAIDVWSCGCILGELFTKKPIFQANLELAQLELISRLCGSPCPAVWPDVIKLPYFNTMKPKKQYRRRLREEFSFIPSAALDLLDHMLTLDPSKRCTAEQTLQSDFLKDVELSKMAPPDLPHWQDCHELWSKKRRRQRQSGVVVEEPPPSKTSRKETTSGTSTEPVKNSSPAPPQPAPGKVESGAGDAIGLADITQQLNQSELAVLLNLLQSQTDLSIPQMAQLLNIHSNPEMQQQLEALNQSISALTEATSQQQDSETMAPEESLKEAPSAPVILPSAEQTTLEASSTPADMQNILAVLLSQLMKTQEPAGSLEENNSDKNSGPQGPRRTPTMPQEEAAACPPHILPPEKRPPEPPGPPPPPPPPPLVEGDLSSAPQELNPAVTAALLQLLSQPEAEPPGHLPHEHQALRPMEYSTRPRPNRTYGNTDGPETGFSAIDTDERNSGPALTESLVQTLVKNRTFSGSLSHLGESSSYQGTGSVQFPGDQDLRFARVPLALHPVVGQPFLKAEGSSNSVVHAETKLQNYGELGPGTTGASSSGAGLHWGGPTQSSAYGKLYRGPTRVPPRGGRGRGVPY
Sequence of CDK12/CycK complex (O75909 whole entry partner, species assumed): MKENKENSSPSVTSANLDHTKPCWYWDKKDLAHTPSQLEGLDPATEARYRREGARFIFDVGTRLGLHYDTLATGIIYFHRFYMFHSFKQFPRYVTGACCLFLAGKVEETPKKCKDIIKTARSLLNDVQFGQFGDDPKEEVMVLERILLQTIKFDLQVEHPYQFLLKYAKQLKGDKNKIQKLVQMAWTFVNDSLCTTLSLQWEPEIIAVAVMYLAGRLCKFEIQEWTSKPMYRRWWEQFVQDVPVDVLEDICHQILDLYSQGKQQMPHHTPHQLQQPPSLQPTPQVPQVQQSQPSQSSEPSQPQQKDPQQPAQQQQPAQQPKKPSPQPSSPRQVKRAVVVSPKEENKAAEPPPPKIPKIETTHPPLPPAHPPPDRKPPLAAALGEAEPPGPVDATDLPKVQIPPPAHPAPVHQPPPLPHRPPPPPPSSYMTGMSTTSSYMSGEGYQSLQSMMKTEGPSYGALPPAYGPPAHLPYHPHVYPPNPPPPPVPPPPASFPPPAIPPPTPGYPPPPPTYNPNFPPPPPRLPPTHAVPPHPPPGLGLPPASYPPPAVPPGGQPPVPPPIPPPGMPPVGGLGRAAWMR
Sequence of CDK12/CycK enzyme (Q9NYV4 whole entry, species assumed): as the sequence (Q9NYV4 whole entry, species assumed) above
Sequence of CDK12/CycK enzyme (O75909 whole entry partner, species assumed): as the sequence (O75909 whole entry partner, species assumed) above

As for `Cn1cc(-c2ccc(N(C(=O)NCc3ccccc3)[C@H]3CC[C@H](Nc4ncc(C#N)c(-c5cncc(S(C)(=O)=O)c5)n4)CC3)nc2)cn1` [Example 440, 3-benzyl-1-(trans-4-((5-cyano-4-(5-(methylsulfonyl)pyridin-3-yl)pyrimidin-2-yl)amino)cyclohexyl)-1-(5-(1-methyl-1H-pyrazol-4-yl)pyridin-2-yl) urea], the inhibition at 1 µM in test [1] was 54%; in the test with A2780 cells it was 98%; against CDK12/CycK enzyme it was 101%; at CDK12/CycK complex, 99%.
On to `COc1ncc(-c2cnc(N(C(=O)OCc3ccccc3)[C@H]3CC[C@H](Nc4ncc(C#N)c(NC5COC5)n4)CC3)nc2)cn1` [Example 608, benzyl (trans-4-((5-cyano-4-(oxetan-3-ylamino)pyrimidin-2-yl)amino)cyclohexyl) (2′-methoxy-5,5′-bipyrimidin-2-yl)carbamate], for which the inhibition at 1 µM amounted to 44% in test [1], 99% in the test with A2780 cells, 102% against CDK12/CycK enzyme and 98% on CDK12/CycK complex.
For `COc1ncc(-c2ccc(N(C(=O)NCc3ccccc3)[C@H]3CC[C@H](Nc4ncc(C#N)c(-c5cn[nH]c5C)n4)CC3)nc2)cn1` [Example 577, 3-benzyl-1-(trans-4-((5-cyano-4-(5-methyl-1H-pyrazol-4-yl)pyrimidin-2-yl)amino)cyclohexyl)-1-(5-(2-methoxypyrimidin-5-yl)pyridin-2-yl)urea], the inhibition at 1 µM turned out to be 87% in test [1], 94% in the test with A2780 cells, 98% at CDK12/CycK enzyme and 88% at CDK12/CycK complex.
For the compound `Cn1cc(-c2ccc(N(C(=O)NCc3ccccc3)[C@H]3CC[C@H](Nc4ncc(C(F)(F)F)c(NC5COC5)n4)CC3)nc2)cn1` [Example 574, 3-benzyl-1-(5-(1-methyl-1H-pyrazol-4-yl)pyridin-2-yl)-1-(trans-4-((4-(oxetan-3-ylamino)-5-(trifluoromethyl)pyrimidin-2-yl)amino)cyclohexyl)urea], the inhibition at 1 µM in test [1] came out at 83%; with A2780 cells, 97%; against CDK12/CycK enzyme, 99%; on CDK12/CycK complex, 103%.
The corresponding values for `COc1ncc(-c2cnc(N(C(=O)NCc3ccccc3)[C@H]3CC[C@H](Nc4ncc(C#N)c(N5CCCC(O)CC5)n4)CC3)nc2)cn1` (stereo partly drawn) [Example 596, 3-benzyl-1-(trans-4-((5-cyano-4-(4-hydroxyazepan-1-yl)pyrimidin-2-yl)amino)cyclohexyl)-1-(2′-methoxy-5,5′-bipyrimidin-2-yl)urea] are 71%, 99%, 100% and 103%.
The corresponding values for `Cn1cc(-c2ccc(N(C(=O)NCc3ccccc3)[C@H]3CC[C@H](Nc4ncc(C#N)c(NC5COC5)n4)CC3)cc2)cn1` [Example 527, 3-benzyl-1-(trans-4-((5-cyano-4-(oxetan-3-ylamino)pyrimidin-2-yl)amino)cyclohexyl)-1-(4-(1-methyl-1H-pyrazol-4-yl)phenyl)urea] are 70%, 97%, 99% and 102%.
On the same counts, the results for `Cn1cc(-c2ccc(N(C(=O)NCc3ccccc3)[C@H]3CC[C@H](Nc4ncc(C#N)c(NC5(C)COC5)n4)CC3)nc2)cn1` [Example 605, 3-benzyl-1-(trans-4-((5-cyano-4-((3-methyloxetan-3-yl)amino)-pyrimidin-2-yl)amino)cyclohexyl)-1-(5-(1-methyl-1H-pyrazol-4-yl)pyridin-2-yl)urea] are 73%, 98%, 100% and 90%.
For the compound `Cn1cc(-c2cnc(N(C(=O)NCc3ccccc3)[C@H]3CC[C@H](Nc4ncc(C#N)c(NC5COC5)n4)CC3)cn2)cn1` [Example 539, 3-benzyl-1-(trans-4-((5-cyano-4-(oxetan-3-ylamino)pyrimidin-2-yl)amino)cyclohexyl)-1-(5-(1-methyl-1H-pyrazol-4-yl)pyrazin-2-yl)urea], the inhibition at 1 µM in test [1] stood at 71%; in the test on A2780 cells, 96%; against CDK12/CycK enzyme, 109%; on CDK12/CycK complex, 99%.
The corresponding values for `COc1ncc(-c2ccc(N(C(=O)NCc3ccccc3F)[C@H]3CC[C@H](Nc4ncc(C#N)c(NC5COC5)n4)CC3)nc2)cn1` [Example 582, 1-(trans-4-((5-cyano-4-(oxetan-3-ylamino)pyrimidin-2-yl)amino)cyclohexyl)-3-(2-fluorobenzyl)-1-(5-(2-methoxypyrimidin-5-yl)pyridin-2-yl)urea] are 72%, 97%, 110% and 91%.
On the same counts, the results for `Cc1cc(-c2nc(N[C@H]3CC[C@H](N(C(=O)NCc4ccccc4)c4ccc(-c5cnn(C)c5)cn4)CC3)ncc2C#N)[nH]n1` [Example 469, 3-benzyl-1-(trans-4-((5-cyano-4-(3-methyl-1H-pyrazol-5-yl)pyrimidin-2-yl)amino)cyclohexyl)-1-(5-(1-methyl-1H-pyrazol-4-yl)pyridin-2-yl) urea] are 62%, 97%, 103% and 94%.
The corresponding values for `COc1ncc(-c2ccc(N(C(=O)OCc3ccccc3)[C@H]3CC[C@H](Nc4ncc(C(F)(F)F)c(N5CC(F)(CO)C5)n4)CC3)nc2)cn1` [Example 600, benzyl (trans-4-((4-(3-fluoro-3-(hydroxymethyl)azetidin-1-yl)-5-(trifluoromethyl)pyrimidin-2-yl)amino)cyclohexyl) (5-(2-methoxypyrimidin-5-yl)pyridin-2-yl)carbamate] are 81%, 93%, 108% and 83%.
Turning to `COc1ncc(-c2ccc(N(C(=O)OCc3ccccc3)[C@H]3CC[C@H](Nc4ncc(C#N)c(N5CC(F)(CO)C5)n4)CC3)nc2)cn1` [Example 603, benzyl (trans-4-((5-cyano-4-(3-fluoro-3-(hydroxymethyl)-azetidin-1-yl)pyrimidin-2-yl)amino)cyclohexyl) (5-(2-methoxypyrimidin-5-yl)pyridin-2-yl)carbamate], the inhibition at 1 µM in test [1] worked out at 81%; in the test with A2780 cells, 93%; against CDK12/CycK enzyme it was 103%; at CDK12/CycK complex it was 76%.
On the same counts, the results for `COc1ncc(-c2cnc(N(C(=O)OCc3ccccc3)[C@H]3CC[C@H](Nc4ncc(C#N)c(N5CCCC(O)CC5)n4)CC3)nc2)cn1` (stereo partly drawn) [Example 611, benzyl (trans-4-((5-cyano-4-(4-hydroxyazepan-1-yl)pyrimidin-2-yl)amino)cyclohexyl) (2′-methoxy-5,5′-bipyrimidin-2-yl)carbamate] are 48%, 97%, 101% and 101%.

(Values after patent US11584737B2, “Heterocyclic compound” (TAKEDA PHARMACEUTICAL COMPANY LIMITED, priority 2018, dated 2023).)
